Each structure is given as a SMILES string.

The test deals with T1, MATE45^long (Arabidopsis thaliana, UniProt A0A1L2EGK5).
T1 construct: gene At1g71870; long splice form ORF cloned from wild-type seedling cDNA, in pDEST42, expressed in Escherichia coli acrB
T1 sequence (A0A1L2EGK5 1-510): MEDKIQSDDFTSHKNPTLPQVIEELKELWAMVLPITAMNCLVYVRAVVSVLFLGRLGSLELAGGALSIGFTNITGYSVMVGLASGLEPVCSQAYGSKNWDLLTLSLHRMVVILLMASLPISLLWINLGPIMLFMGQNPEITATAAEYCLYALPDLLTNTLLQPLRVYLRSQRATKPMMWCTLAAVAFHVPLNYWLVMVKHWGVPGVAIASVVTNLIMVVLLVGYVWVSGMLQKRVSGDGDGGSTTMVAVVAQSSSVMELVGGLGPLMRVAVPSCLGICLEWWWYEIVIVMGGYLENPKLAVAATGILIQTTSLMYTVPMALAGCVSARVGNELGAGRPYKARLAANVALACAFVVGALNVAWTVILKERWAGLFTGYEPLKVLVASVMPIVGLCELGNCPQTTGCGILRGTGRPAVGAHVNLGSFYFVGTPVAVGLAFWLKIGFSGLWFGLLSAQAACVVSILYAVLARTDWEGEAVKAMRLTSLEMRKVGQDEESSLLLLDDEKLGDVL
The test is described as follows: uptake into E. coli acrB cells, LC-MS MRM. The format is cell-based. Conditions: 0.5 uM (+)-ABA, 30 min; Venus fluorescent protein as control.

As for `CC1=CC(=O)CC(C)(C)C1(O)/C=C/C(C)=C\C(=O)O` (stereo in doubt) [(+)-ABA, (+)‐ABA], the “rate of (+)-ABA uptake” value is on record as “significantly higher rates of ABA uptake into E. coli cells expressing MATE45^long compared to the control”.

For the origin of these results see paper PMC6508792, “Arabidopsis MATE45 antagonizes local abscisic acid signaling to mediate development and abiotic stress responses” (Plant Direct, 2018).
